According to patent US12491185B2, “Inhibitors of mPTP” (NRG Therapeutics Ltd, priority 2023, dated 2025):

tested on: mPTP; test: mPTP activity (Ca2+ retention) assay in isolated rat liver mitochondria; type: biochemical; details: examples tested by different contract research organisations, believed comparable
From the text: Pharmacological inhibition or modulation of the mPTP can be measured in well characterised ‘Ca^2+ retention’ assays performed in isolated mitochondria. In vitro, isolated mitochondria rapidly sequester exogenous Ca^2+ until the intramitochondrial Ca^2+ concentration reaches the threshold for mPTP activation. Once the pore is activated, mitochondrial integrity is compromised and the stored Ca^2+ is released. The distribution of Ca^2+ between extra- and intra-mitochondrial compartments can be measured in real time with the use of membrane-impermeant Ca^2+ sensitive fluorescent dyes. Depending on the configuration of the assay, inhibition or modulation of the mPTP either delays the opening of the pore or increases the concentration of Ca^2+ required to induce mPTP opening.
MPTP activity was measured in mitochondria freshly isolated from female Sprague Dawley (250 to 300 gram) rat livers using the following method. Cervical dislocation was performed on the rat. The liver was then perfused in-situ with −40 ml cold Dulbecco's Phosphate Buffered Saline (DPBS) prior to dissection and transferred into 30 ml Isolation Buffer (250 mM Sucrose, 10 mM KCl, 1 mM EGTA, 1 mM EDTA, 25 mM HEPES, adjusted to pH 7.5 with 1M NaOH). Each lobe of the liver was then removed from the buffer, minced using tweezers and a scalpel into −5 mm pieces then transferred into a 50 ml Potterton dounce homogenization tube on ice containing 30 ml ice-cold centrifugation buffer (300 mM Trehalose, 25 mM HEPES, 1 mM EGTA, 1 mM EDTA, 10 mM KCl, adjusted to pH 7.5 with 1M NaOH and supplemented with 0.1% bovine serum albumin (BSA) and complete protease inhibitor cocktail (one tablet of inhibitor per 50 mls of buffer). Homogenisation was carried out using a teflon pestle at 1800 rpm. The slurry was centrifuged at 800 g for 10 min at 4° C., then the supernatant centrifuged at 10,000 g for 10 min. The pellet was washed once with FLIPR assay buffer (75 mM Mannitol, 25 mM Sucrose, 5 mM Potassium Phosphate Monobasic, 20 mM Tris base, 100 mM KCl, 0.1% BSA adjusted to pH 7.4 with 5M HCl) centrifuged again, then resuspended in FLIPR assay buffer to a concentration of 8.8 mg/ml protein.
Tested compounds (10 mM stock in DMSO) were serially diluted in DMSO in half log steps to generate 10 test concentrations (final concentrations in assay 30 μM to 1 nM). An intermediate dilution of 5 μl DMSO samples into 247 μl FLIPR assay buffer was carried out prior to transfer of 5 μl into duplicate wells of a 384 well polypropylene assay plate. Control wells were 0.5% (v/v) DMSO and 5 μM cyclosporin A.
A stock mitochondria/Fluo5N assay solution was prepared in 5.6 ml FLIPR assay buffer (at RT) supplemented with succinate disodium salt (10 mM), rotenone (1 μM), Fluo5N pentapotassium salt (2 μM) and 1 ml mitochondria suspension, then transferred (15 μl) into the assay plate containing test compounds and incubated for 10 min at RT. Assay plates were processed for fluorescence detection on either a FLIPR Tetra (Molecular Devices) or CLARIOstar (BMG) plate reader. For kinetic fluorescence detection on the FLIPR, dye fluorescence was measured every 3 sec for a total of 10 min. After 12 sec, a 2.5 μl bolus of CaCl2 (75 μM) was added from a source plate containing 675 μM CaCl2 in FLIPR assay buffer. Alternatively, the 2.5 μl addition of CaCl2 was performed using a Viaflow 384, plates were incubated at RT for 10 min, and dye fluorescence measured after 10 min on the CLARIOstar plate reader. pIC50 values for tested compounds were calculated using the fluorescence value collected at the 10 min timepoint on either plate reader, with % inhibition calculated using the DMSO control and cyclosporin A values as 0 and 100% respectively.

mPTP Rat liver pIC50 | Compound
<4.57 | O=C(NCC1(Cc2ccc(F)cc2F)CCC1)c1cc(=O)[nH]s1 [Example 201]
6.58 | O=C(NCC1(Cc2cc(F)c(F)cc2F)CCC1)c1cncc(=O)[nH]1 [Example 148]
6.56 | CC(NC(=O)c1nn(C)c(=O)[nH]1)[C@H](Cc1ccc(F)cc1F)C1CC1 (stereo partly shown) [Example 196]
5.72 | O=C(NC[C@H](Cc1ccc(F)cc1F)C1CC1)c1ncc(F)c(=O)[nH]1 [Example 192]
<4.57 | Cn1nc(C(=O)NCC(Cc2ccc(F)cc2F)C2CCCC2)[nH]c1=O (stereo not shown) [Example 103, N-(2-cyclopentyl-3-(2,4-difluorophenyl)propyl)-1-methyl-5-oxo-4,5-dihydro-1H-1,2,4-triazole-3-carboxamide]
6.47 | O=C(NC[C@H](Cc1ccc(F)c(F)c1)C1CC1)c1cncc(=O)[nH]1 [Example 143]
<4.57 | O=C(NC[C@H](Cc1ccc(F)cc1F)C1CC1)c1cnc(=O)[nH]c1 [Example 147]
5.65 | O=C(NCC1(Cc2ccc(F)cc2F)CCC1)c1cnn[nH]1 [Example 170]
<4.57 | O=C(NCC1(Cc2ccc(F)cc2F)CCC1)c1cn[nH]c(=O)c1 [Example 127]
5.54 | O=C(NC[C@H](Cc1ccc(F)cc1F)C1CC1)c1cncc(=O)[nH]1 [Example 154]

More lines, now with the values behind:

Compound | mPTP Rat liver pIC50
Cn1nc(C(=O)NCC2Cc3ccccc3O2)[nH]c1=O (stereo not shown) [Reference Example 114, N-((2,3-dihydrobenzofuran-2-yl)methyl)-1-methyl-5-oxo-4,5-dihydro-1H-1,2,4-triazole-3-carboxamide] | <4.57
O=C(NCC1(Cc2ccc(F)cc2F)CCOCC1)c1cc(=O)[nH]o1 [Example 184] | 6.14
Cn1nc(C(=O)NCC2(C)Cc3ccccc3C2)[nH]c1=O [Example 58] | 5.03
Cc1cccc(CC2(CNC(=O)c3nn(C)c(=O)[nH]3)CCC2)c1F [Example 94, N-((1-(2-Fluoro-3-methylbenzyl)cyclobutyl)methyl)-1-methyl-5-oxo-4,5-dihydro-1H-1,2,4-triazole-3-carboxamide] | 5.77
CC(NC(=O)c1nn(C)c(=O)[nH]1)C(C)(C)Cc1ccccc1 (single isomer, unassigned) [Example 39A, N-(3,3-dimethyl-4-phenylbutan-2-yl)-1-methyl-5-oxo-4,5-dihydro-1H-1,2,4-triazole-3-carboxamide] | <4.57
Cn1nc(C(=O)NCC2(Cc3ccc(F)cc3F)CCCO2)[nH]c1=O (stereo not shown) [Example 120] | 6.51
Cn1nc(C(=O)NCC2(Cc3ccc(Cl)cc3F)CCC2)[nH]c1=O [Example 90, N-((1-(4-Chloro-2-fluorobenzyl)cyclobutyl)methyl)-1-methyl-5-oxo-4,5-dihydro-1H-1,2,4-triazole-3-carboxamide] | 5.61
CCC(Cc1ccc(F)cc1F)CN(C)C(=O)c1nccc(=O)[nH]1 (stereo not shown) [Example 169] | <4.57
O=C(NCC1(Cc2ccc(F)cc2F)CCC1)c1n[nH]c(=O)o1 [Example 211] | 6.05
Cc1cc(F)ccc1CC1(CNC(=O)c2nn(C)c(=O)[nH]2)CCC1 [Example 86, N-((1-(4-Fluoro-2-methylbenzyl)cyclobutyl)methyl)-1-methyl-5-oxo-4,5-dihydro-1H-1,2,4-triazole-3-carboxamide] | 5.86
O=C(NCC1(Cc2cccc(F)c2)CCC1)c1nnc[nH]1 [Example 171] | 4.87
O=C(NCC1(Cc2ccc(F)cc2F)CCC1)c1cc(O)ccn1 [Example 128] | 6.01
O=C(NCC1(Cc2ccc(F)cc2F)CCOCC1)c1nccc(=O)[nH]1 [Example 185] | 6.34
Cn1nc(C(=O)NCCC(C)(C)c2ccccc2)[nH]c1=O [Example 59] | 5.06
CSc1cccc(CC2(CNC(=O)c3nn(C)c(=O)[nH]3)CCC2)c1 [Example 182] | 5.02
